Where two headings read alike, the source gives them in different places.
Tests used:
Type in all cases: biochemical
[1] = target: T1, Human PI3K gamma (Homo sapiens, UniProt P48736); experiment: Human PI3K gamma enzyme assay (HTRF)
T1 construct: His (N); host or cells: SF9 insect cells (baculovirus)
Text: (§1) The catalytic subunits of PI3Ks are cloned into either pDEST8(p110 alpha) or pDEST10(p110beta, p110delta, and p110gamma) as N-terminal His tagged fusion proteins using the Gateway system (Invitrogen, catalog#11804-010 for pDEST8 and 11806-015 for pDEST10). The sequences are verified before recombinant protein expression using the Baculovirus Expression System with Gateway® Technology. The accession numbers for the subunits are as follows: • p110 alpha (GB:U79143) • p110beta (GB: S67334) • p110delta (GB: U86453) • p110gamma (GB: X83368) • The regulatory subunits of PI3Ks are cloned into pDEST8 as un-tagged protein using the Gateway system (Catalog#11804-010). The sequences are verified before recombinant protein expression using the Baculovirus Expression System with Gateway® Technology. The accession numbers for the subunits are as following: • p85 alpha (GB: BC030815) • p101(GB: AB028925) • VPS34 (accession number GB:BC033004) is cloned into pDEST20—Thombin as N-terminal GST tagged fusion proteins using the Gateway system (Invitrogen, catalog#11804-013). The sequences are verified before recombinant protein expression using the Baculovirus Expression System with Gateway® Technology.
(§2) For expression of the p110 complexes, the p85 (MOI of 4) is co-infected with p110 alpha, beta, and delta respectively (1MOI) in SF9 cells and harvested at 60 hours post co-infection. P110 gamma was infected at 1 MOI and harvested at 60 hours post infection.
(§3) For purification, PI3Ks are purified by Ni-NTA Agarose (Qiagen #30250) followed by Mono Q 10/100 GL (Ge Healthcare #17-5167-01). VPS34 is purified by Glutathione Sepharose 4 Fast Flow (GE Healthcare #17-5132-03) followed by HiTrap Q (GE Healthcare #17-1153-01).
(§4) 0.5 uL compounds in DMSO are added to wells of a 384 well microtitre plate (Corning 3575). At room temperature: 10 ul PI3K reaction buffer (50 mM Hepes, 5 mM DTT, 150 mM NaCl, 10 mM beta-glycerophosphate, 10 mM MgCl2, 0.25 mM sodium cholate and 0.001% CHAPS, pH 7.00) containing ATP (25 uM, Promega) is added followed immediately by 10 ul PI3K reaction buffer containing di-C8 P1(4,5)P2 (3.5 uM, CellSignals) and PI3Kalpha (0.4875 nM, Millennium Protein Sciences Group) and the mixture is incubated with shaking at room temperature for 30 minutes. Then 5 ul PI3K stop mix (50 mM Hepes, 5 mM DTT, 150 mM NaCl, 0.01% Tween-20, 15 mM EDTA and 25 nM biotin-PI(3,4,5)P3 (Echelon) is added to quench the reaction followed immediately by addition of 5 ul HTRF detection mix (50 mM Hepes, 5 mM DTT, 150 mM NaCl, 0.01% Tween-20, 40 mM KF, 1.0 nM GST:GRP-1 PH domain (Millennium Protein Sciences Group), 15 nM Streptavidin-XL (CisBio) and 0.375 nM anti-GST Eu++ antibody (CisBio) at pH 7.00). The plates are then incubated for 1 hour at room temperature with shaking and then read on a BMG PheraStar Plus reader.
(§5) 2) Human PI3K beta, delta and gamma isoforms are tested using the procedure described for PI3K alpha above but with the following changes: PI3K beta (5.25 nM), PI3K delta (0.75 nM) and PI3K gamma (5 nM). All isoforms supplied by Millennium Protein Science Group.
(§6) For the assay methods described above, test compound percent inhibition, at various concentrations, is calculated relative to control (DMSO and EDTA) treated samples. Compound concentration versus percent inhibition curves are fitted to generate IC50 values. One skilled in the art will appreciate that the values generated either as percentage inhibition at a single concentration or IC50 values are subject to experimental variation.

[2] = target: T2, Human PI3K delta (Homo sapiens, UniProt O00329); experiment: Human PI3K delta enzyme assay (HTRF)
T2 construct: His (N); host or cells: SF9 insect cells (baculovirus)
Text: as §1, §2, §3, §4, §5, §6

[3] = target: T3, Human PI3K beta (Homo sapiens, UniProt P42338); experiment: Human PI3K beta enzyme assay (HTRF)
T3 construct: His (N); host or cells: SF9 insect cells (baculovirus)
Outline: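 Compounds were mixed with 25 uM ATP, then with 3.5 uM di-C8 PI(4,5)P2 and His-tagged PI3K isoform (β 5.25 nM, δ 0.75 nM, γ 5 nM) at pH 7.00. After 30 min at room temperature, EDTA stopped the reaction and PIP3 was measured by HTRF over 1 h.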

[4] = target: T4, Human PI3K alpha (Homo sapiens, UniProt P42336); experiment: Human PI3K alpha enzyme assay (HTRF)
T4 construct: His (N); host or cells: SF9 insect cells (baculovirus)

[5] = concentration not given, b1389 states 1.0 μM for PI3K δ and γ
[6] = concentration not given, b1389 states 1.0 μM for PI3K δ and γ, read-out: p110 delta Percent Inhibition
[7] = concentration not given, b1387 states 1.1 μM for PI3K α and β, read-out: p110 beta Percent Inhibition
[8] = concentration not given, b1387 states 1.1 μM for PI3K α and β
[9] = concentration not given, b1389 states 1.0 μM for PI3K δ and γ, read-out: p110 gamma Percent Inhibition
[10] = concentration not given, b1387 states 1.1 μM for PI3K α and β, read-out: p110 alpha Percent Inhibition

T2 sequence (O00329 whole entry): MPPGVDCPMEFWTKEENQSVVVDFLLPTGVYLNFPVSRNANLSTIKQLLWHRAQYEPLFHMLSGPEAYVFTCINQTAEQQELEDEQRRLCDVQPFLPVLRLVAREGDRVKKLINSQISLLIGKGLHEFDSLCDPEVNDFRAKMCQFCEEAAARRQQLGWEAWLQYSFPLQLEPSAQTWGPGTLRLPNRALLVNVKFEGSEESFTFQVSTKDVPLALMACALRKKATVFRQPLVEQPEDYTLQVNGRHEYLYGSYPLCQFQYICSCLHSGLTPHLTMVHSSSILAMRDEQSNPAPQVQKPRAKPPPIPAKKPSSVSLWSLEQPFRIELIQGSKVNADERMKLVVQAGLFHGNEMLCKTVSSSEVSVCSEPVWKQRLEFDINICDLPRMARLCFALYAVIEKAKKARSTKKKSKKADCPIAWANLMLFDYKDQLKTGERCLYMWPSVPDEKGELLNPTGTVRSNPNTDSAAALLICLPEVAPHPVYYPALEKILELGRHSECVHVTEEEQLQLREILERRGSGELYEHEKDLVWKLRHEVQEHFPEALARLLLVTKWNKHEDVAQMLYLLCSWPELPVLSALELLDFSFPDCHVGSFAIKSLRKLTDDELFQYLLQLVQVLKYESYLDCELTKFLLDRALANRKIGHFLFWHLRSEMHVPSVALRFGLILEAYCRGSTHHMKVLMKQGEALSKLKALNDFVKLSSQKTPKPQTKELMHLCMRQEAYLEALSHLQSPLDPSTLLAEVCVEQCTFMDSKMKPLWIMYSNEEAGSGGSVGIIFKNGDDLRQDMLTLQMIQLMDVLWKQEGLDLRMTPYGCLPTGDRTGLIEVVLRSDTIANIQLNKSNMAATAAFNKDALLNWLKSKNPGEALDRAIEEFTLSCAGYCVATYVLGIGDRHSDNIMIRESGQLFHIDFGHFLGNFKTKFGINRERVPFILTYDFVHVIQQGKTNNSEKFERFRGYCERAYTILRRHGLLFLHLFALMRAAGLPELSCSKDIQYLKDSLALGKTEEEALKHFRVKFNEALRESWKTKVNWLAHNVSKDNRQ
T2 sequence (P27986 whole entry partner): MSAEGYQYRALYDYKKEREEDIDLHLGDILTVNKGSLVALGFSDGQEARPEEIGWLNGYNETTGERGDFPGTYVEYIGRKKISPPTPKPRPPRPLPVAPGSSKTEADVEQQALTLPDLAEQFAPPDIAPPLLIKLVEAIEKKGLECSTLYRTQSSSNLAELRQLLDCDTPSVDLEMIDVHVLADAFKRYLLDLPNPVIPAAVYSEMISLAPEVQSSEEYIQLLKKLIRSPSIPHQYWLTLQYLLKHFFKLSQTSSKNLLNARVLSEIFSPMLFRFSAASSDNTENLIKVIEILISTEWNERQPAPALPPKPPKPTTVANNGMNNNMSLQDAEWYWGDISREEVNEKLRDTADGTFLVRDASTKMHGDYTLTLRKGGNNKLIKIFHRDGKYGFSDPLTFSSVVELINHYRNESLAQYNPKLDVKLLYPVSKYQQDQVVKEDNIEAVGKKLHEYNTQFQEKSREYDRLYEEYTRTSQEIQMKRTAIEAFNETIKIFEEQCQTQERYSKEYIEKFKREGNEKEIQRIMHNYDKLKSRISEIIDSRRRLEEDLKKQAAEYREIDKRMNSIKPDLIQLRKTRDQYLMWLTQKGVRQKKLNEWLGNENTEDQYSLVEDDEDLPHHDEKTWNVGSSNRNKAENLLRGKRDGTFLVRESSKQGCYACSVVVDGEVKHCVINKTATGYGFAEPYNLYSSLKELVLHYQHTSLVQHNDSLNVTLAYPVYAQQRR
T1 sequence (P48736 whole entry): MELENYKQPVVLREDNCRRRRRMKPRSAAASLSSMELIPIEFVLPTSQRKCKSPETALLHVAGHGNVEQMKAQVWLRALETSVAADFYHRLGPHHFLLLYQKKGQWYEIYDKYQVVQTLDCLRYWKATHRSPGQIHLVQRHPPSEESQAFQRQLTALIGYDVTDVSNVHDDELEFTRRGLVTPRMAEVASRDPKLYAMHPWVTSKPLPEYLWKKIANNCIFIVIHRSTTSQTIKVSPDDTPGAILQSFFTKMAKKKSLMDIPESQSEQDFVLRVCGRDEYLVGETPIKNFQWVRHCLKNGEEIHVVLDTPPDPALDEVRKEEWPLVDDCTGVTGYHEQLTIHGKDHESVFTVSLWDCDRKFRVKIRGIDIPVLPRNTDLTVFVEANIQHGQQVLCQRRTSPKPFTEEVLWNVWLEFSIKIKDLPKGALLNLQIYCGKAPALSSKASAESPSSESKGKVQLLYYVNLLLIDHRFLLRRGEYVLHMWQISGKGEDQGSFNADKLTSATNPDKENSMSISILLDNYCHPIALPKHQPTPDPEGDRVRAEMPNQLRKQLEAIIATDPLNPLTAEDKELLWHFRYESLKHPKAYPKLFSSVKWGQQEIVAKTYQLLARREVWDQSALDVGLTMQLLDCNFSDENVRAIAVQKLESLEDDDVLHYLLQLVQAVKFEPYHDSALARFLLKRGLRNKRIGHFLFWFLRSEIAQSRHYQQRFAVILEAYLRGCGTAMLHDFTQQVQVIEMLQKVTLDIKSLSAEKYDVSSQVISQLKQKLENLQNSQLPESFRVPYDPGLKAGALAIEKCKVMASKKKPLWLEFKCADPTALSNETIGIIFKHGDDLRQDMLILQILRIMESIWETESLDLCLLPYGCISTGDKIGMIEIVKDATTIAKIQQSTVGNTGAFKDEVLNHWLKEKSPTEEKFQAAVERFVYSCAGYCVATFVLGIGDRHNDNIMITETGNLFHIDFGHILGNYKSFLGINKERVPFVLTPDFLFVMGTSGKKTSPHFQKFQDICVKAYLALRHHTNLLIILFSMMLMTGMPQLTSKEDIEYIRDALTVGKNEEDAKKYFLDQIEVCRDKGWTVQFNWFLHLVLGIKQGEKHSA
T4 sequence (P42336 whole entry): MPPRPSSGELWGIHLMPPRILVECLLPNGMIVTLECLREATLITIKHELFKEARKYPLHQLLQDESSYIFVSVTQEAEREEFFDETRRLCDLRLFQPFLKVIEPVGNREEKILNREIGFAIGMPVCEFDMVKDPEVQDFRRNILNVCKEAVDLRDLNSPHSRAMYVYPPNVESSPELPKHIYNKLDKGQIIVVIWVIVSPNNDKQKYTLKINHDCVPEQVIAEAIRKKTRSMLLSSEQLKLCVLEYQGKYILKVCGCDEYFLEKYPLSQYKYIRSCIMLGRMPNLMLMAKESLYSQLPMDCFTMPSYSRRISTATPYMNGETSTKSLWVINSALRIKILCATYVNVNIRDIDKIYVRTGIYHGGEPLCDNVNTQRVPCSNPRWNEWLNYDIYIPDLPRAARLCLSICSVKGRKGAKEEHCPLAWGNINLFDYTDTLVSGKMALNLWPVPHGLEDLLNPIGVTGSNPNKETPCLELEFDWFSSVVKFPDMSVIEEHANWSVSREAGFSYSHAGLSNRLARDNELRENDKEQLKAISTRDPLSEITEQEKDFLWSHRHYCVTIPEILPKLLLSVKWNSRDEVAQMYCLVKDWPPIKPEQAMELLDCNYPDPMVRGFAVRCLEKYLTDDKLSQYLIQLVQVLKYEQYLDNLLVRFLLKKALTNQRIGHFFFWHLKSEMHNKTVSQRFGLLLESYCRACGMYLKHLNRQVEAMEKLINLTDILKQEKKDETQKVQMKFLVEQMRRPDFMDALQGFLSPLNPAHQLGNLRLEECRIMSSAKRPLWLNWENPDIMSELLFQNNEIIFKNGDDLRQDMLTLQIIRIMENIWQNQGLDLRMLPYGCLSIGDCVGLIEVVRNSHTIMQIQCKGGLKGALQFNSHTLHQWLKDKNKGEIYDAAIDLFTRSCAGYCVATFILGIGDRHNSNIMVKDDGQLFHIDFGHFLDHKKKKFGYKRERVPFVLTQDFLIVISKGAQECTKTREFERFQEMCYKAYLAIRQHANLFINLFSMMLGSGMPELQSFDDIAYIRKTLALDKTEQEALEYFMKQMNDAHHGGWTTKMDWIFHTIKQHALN
T4 sequence (P27986 whole entry partner): as the sequence (P27986 whole entry partner) above
T3 sequence (P42338 whole entry): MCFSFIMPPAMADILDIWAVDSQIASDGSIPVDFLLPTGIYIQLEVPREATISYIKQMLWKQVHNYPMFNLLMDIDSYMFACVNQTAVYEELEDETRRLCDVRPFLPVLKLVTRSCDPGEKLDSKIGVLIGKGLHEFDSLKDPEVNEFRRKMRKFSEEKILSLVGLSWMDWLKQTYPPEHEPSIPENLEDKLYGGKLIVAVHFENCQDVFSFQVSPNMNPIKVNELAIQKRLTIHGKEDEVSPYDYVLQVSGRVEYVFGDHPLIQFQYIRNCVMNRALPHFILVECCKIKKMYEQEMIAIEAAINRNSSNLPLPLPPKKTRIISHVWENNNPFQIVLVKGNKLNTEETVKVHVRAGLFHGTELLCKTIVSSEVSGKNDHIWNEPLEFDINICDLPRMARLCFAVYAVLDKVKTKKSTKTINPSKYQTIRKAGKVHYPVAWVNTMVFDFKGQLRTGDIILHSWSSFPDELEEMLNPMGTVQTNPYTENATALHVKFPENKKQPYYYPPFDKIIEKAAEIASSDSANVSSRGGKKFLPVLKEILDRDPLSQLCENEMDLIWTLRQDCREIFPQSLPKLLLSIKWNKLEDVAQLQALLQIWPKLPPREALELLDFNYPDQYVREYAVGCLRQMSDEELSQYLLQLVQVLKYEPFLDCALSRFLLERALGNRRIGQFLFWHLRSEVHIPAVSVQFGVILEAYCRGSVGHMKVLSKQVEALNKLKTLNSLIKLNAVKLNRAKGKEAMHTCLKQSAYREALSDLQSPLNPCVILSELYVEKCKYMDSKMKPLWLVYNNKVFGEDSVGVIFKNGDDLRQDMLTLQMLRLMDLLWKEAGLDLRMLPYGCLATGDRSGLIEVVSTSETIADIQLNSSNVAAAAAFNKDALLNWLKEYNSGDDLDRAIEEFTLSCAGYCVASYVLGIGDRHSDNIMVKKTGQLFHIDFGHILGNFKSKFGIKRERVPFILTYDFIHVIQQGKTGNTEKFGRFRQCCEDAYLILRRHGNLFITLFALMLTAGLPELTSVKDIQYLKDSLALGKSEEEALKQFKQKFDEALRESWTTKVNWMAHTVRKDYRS
T3 sequence (P27986 whole entry partner): as the sequence (P27986 whole entry partner) above

| SMILES | inhibition at 1 µM [2, 6] | inhibition at 1.1 µM [3, 7] | inhibition at 1 µM [1, 9] | inhibition at 1.1 µM [4, 10] | other results |
| --- | --- | --- | --- | --- | --- |
| CC(=O)Nc1cc(-c2cc(C(c3ccc(Cl)cc3)N3CCC[C@H]3CO)c(-c3nnc[nH]3)s2)ccn1 (single isomer, unassigned) [Compound 259] | 101% | 100% |  |  | p110 gamma Percent Inhibition [1, 5]: 25%; p110 alpha Percent Inhibition [4, 8]: 69% |
| CC(=O)Nc1cc(-c2cc([C@H](c3ccc(Cl)cc3)N(C)C)c(-c3nnc[nH]3)s2)ccn1 (single isomer, unassigned) [Compound 261] | 105% | 113% | 33% | 79% |  |
| CC(=O)Nc1cc(-c2cc(C(c3ccc(Cl)cc3)N3CCC[C@@H]3CO)c(-c3nnc[nH]3)s2)ccn1 (single isomer, unassigned) [Compound 283] |  |  |  |  | p110 gamma Percent Inhibition [1, 5]: 18%; p110 delta Percent Inhibition [2, 5]: 99%; p110 beta Percent Inhibition [3, 8]: 98%; p110 alpha Percent Inhibition [4, 8]: 96% |
| O=C(O)c1sc(N2CCOCC2)nc1Cc1ccc(Cl)cc1 [Compound 91, 4-(4-chlorobenzyl)-2-morpholinothiazole-5-carboxylic acid] |  |  |  |  | inhibition at 1 µM ([1]; at a 1.0 μM concentration, read-out: PI3Kγ Percent Inhibition): 15.4%; inhibition at 1 µM ([2]; at a 1.0 μM concentration, read-out: PI3Kδ Percent Inhibition): 84.8%; inhibition at 1.1 µM ([3]; at a 1.1 μM concentration, read-out: PI3β Percent Inhibition): 105%; IC50 ([3]; read-out: PI3 Kbeta IC50): < 100 nM; inhibition at 1.1 µM ([4]; at a 1.1 μM concentration, read-out: PI3Kα Percent Inhibition): 27%; IC50 ([4]; read-out: PI3Kalpha IC50): > 1000 nM |
| CC(=O)Nc1cc(-c2cc(C(NCC3CNC3)c3ccc(Cl)cc3)c(-c3nnc[nH]3)s2)ccn1 (stereo not drawn) [Compound 129] | 109% | 106% | 32% | 83% |  |
| COc1ccc(C(O)c2cc(-c3ccncc3)sc2-c2nnc[nH]2)cc1F (stereo not drawn) [Compound 130] | 62% | 73% | 22% | 21% |  |
| CC(=O)Nc1cc(-c2sc(-c3nnc[nH]3)c([S+]([O-])c3ccc(Cl)cc3)c2C#N)ccn1 (stereo not drawn) [Compound 131, N-{4-[4-[(4-chlorophenyl)sulfinyl]-3-cyano-5-(4H-1,2,4-triazol-3-yl)-2-thienyl]pyridin-2-yl}acetamide] | 80% | 78% | 5% | 75% |  |
| OC(c1cnc2ccccc2c1)c1cc(-c2ccncc2)sc1-c1nnc[nH]1 (stereo not drawn) [Compound 132] | 77% | 103% | 53% | 45% |  |
| OC(c1nc(-c2ccccc2)cs1)c1cc(-c2ccncc2)sc1-c1nnc[nH]1 (stereo not drawn) [Compound 133] | 74% | 101% | 26% | 84% |  |
| OC(c1ccc2c(c1)OC(F)(F)O2)c1cc(-c2ccncc2)sc1-c1nnc[nH]1 (stereo not drawn) [Compound 134] | 44% | 72% | 8% | 21% |  |
| CC(=O)Nc1cc(-c2cc(C(NCC(F)(F)F)c3ccc(Cl)cc3)c(-c3nnc[nH]3)s2)ccn1 (stereo not drawn) [Compound 135] | 99% | 87% | 8% | 78% |  |
| OC(c1cc2ccccc2cc1F)c1cc(-c2ccncc2)sc1-c1nnc[nH]1 (stereo not drawn) [Compound 136] | 109% | 110% | 67% |  | p110 alpha Percent Inhibition [4, 8]: 80% |
| Clc1cccc(Cc2nc(-c3ccncc3)sc2-c2nnc[nH]2)c1 [Compound 137] | 30% | 54% | 12% | 12% |  |
| Cc1c(F)cccc1C(O)c1cc(-c2ccncc2)sc1-c1nnc[nH]1 (stereo not drawn) [Compound 138] | 69% | 86% | 13% | 43% |  |
| CC(=O)Nc1cc(-c2cc(C(c3ccc(Cl)cc3)N3CCC(CN)C3)c(-c3nnc[nH]3)s2)ccn1 (stereo not drawn) [Compound 139] | 105% | 100% | 24% | 77% |  |
| CC(=O)Nc1cc(-c2sc(-c3nnc[nH]3)c(S(=O)(=O)c3ccc(Cl)cc3)c2C#N)ccn1 [Compound 140, N-{4-[4-[(4-chlorophenyl)sulfonyl]-3-cyano-5-(4H-1,2,4-triazol-3-yl)-2-thienyl]pyridin-2-yl}acetamide] | 74% | 47% | 62% | 76% |  |
| Cc1ccc(C(O)c2cc(-c3ccncc3)sc2-c2nnc[nH]2)c(C)c1 (stereo not drawn) [Compound 141] | 66% | 89% | 15% | 17% |  |
| OC(c1ccc(C(F)(F)F)cc1)c1cc(-c2ccncc2)sc1-c1nnc[nH]1 (stereo not drawn) [Compound 142] | 47% | 67% | 7% | 15% |  |
| N#Cc1c(-c2ccncc2)sc(C(=O)O)c1Cc1ccc2ccccc2c1 [Compound 143] | 85% | 115% | 62% | 58% |  |
| CC(=O)Nc1cc(-c2cc(C(c3ccc(Cl)cc3)N3CC(N(C)C)C3)c(-c3nnc[nH]3)s2)ccn1 (stereo not drawn) [Compound 144] | 111% | 94% | 19% |  | p110 alpha Percent Inhibition [4, 8]: 63% |
| CC(=O)Nc1cc(-c2cc(C(O)(CCCN(C)C)c3ccc(Cl)cc3)c(-c3nnc[nH]3)s2)ccn1 (stereo not drawn) [Compound 145] | 97% | 98% | 9% | 64% |  |
| O=C(Nc1cc(-c2cc(C(c3ccc(Cl)cc3)N3CCNCC3)c(-c3nnc[nH]3)s2)ccn1)C1CC1 (stereo not drawn) [Compound 146] | 110% | 103% | 23% | 67% |  |
| OC(c1ccc(Cl)cc1)c1cc(-c2ccnc(Nc3ncco3)c2)sc1-c1nnc[nH]1 (stereo not drawn) [Compound 147] | 107% | 96% | 18% | 83% |  |
| N#Cc1c(-c2ccncc2)sc(-c2nnc[nH]2)c1Cc1ccc2ccccc2c1 [Compound 148] | 69% | 98% | 34% | 41% |  |
| COc1cc(C(O)c2cc(-c3ccnc(Cl)c3)sc2-c2nnc[nH]2)c(F)cc1Cl (stereo not drawn) [Compound 149] |  |  |  |  | p110 gamma Percent Inhibition [1, 5]: 75%; p110 delta Percent Inhibition [2, 5]: 117%; p110 beta Percent Inhibition [3, 8]: 109%; p110 alpha Percent Inhibition [4, 8]: 54% |

From patent US8796268B2, “Heteroaryls and uses thereof” (Millennium Pharmaceuticals, Inc., priority 2010, dated 2014)
